Eight compounds from PubChem BioAssay (NCI) can be followed below.

Some test systems named below: NCI-H460 lung; HCC-2998 colon; K-562 leukemia; RXF 393 renal; UACC-257 melanoma; OVCAR-4 ovarian; HOP-92 NSCLC; MALME-3M melanoma; SR leukemia; CCRF-CEM leukemia; SNB-75 CNS; SNB-19 CNS; A549 NSCLC.
Experiment in all cases: inhibition of tumour cell growth, NCI panel, 48 h

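Test compounds were applied to cells in 96-well plates for 48 hours at 5 doses. GI50: concentration for 50% inhibition of growth. TGI: total growth inhibition.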

`N=c1c2c(=S)n(-c3ccccc3)c(=S)n(-c3ccccc3)c2nc(SCCCN2CCN(c3cccc(Cl)c3)CC2)n1-c1ccccc1`: the TGI with NCI-H460 lung, in the experiment with HCC-2998 colon, in the experiment with K-562 leukemia, with RXF 393 renal, in the experiment with UACC-257 melanoma and in the experiment on OVCAR-4 ovarian was above 100 µM throughout. Besides, the TGI in the experiment with HOP-92 NSCLC, in the experiment with MALME-3M melanoma, with SR leukemia, in the experiment with CCRF-CEM leukemia and with SNB-75 CNS was above 100 µM in each case.

Regarding `Cc1cc(C)c2c(c1)CC1(Cc3c(C)ccc(C)c3C1=O)C2=O` (stereo not given), the TGI with NCI-H460 lung, in the experiment with HCC-2998 colon, with K-562 leukemia, in the experiment with SNB-19 CNS, in the experiment on RXF 393 renal and in the experiment with UACC-257 melanoma was above 100 µM throughout. In addition, the TGI with A549 NSCLC, in the experiment on OVCAR-4 ovarian, in the experiment on HOP-92 NSCLC, in the experiment with MALME-3M melanoma, in the experiment on SR leukemia and in the experiment on CCRF-CEM leukemia was above 100 µM in each case. For the same compound, the TGI with SNB-75 CNS was above 100 µM.

As for `CCNc1nnc(-c2nsc3ccccc23)s1`, the TGI was 88.6 µM in the experiment on NCI-H460 lung; above 100 µM in the experiment with HCC-2998 colon; above 100 µM in the experiment with K-562 leukemia; 45.6 µM in the experiment with SNB-19 CNS; above 100 µM in the experiment with RXF 393 renal; above 100 µM in the experiment on UACC-257 melanoma. In addition, the TGI was above 100 µM in the experiment on A549 NSCLC; above 100 µM with OVCAR-4 ovarian; above 100 µM with HOP-92 NSCLC; above 100 µM in the experiment on SR leukemia; above 100 µM in the experiment with CCRF-CEM leukemia; 36.1 µM in the experiment with SNB-75 CNS.

As for `Cc1ccc([N+](=O)[O-])cc1S(=O)(=O)Nc1ccc(C2=NNC(c3ccccc3O)C2)cc1` (stereo not given), the TGI in the experiment on NCI-H460 lung was 80.6 µM; with HCC-2998 colon, above 100 µM; with K-562 leukemia it was above 100 µM; in the experiment with SNB-19 CNS, above 100 µM; in the experiment with RXF 393 renal, 40.5 µM; with UACC-257 melanoma it was above 100 µM. For the same compound, the TGI with A549 NSCLC is above 100 µM; in the experiment on OVCAR-4 ovarian it was 63.8 µM; with HOP-92 NSCLC it was above 100 µM; with MALME-3M melanoma, 96.3 µM; in the experiment on SR leukemia, 87.7 µM; with CCRF-CEM leukemia it was above 100 µM. Also, the TGI with SNB-75 CNS was above 100 µM.

In the case of `CC(=O)Oc1ccc2c(c1)oc1c3ccc(OC(C)=O)cc3n(C)c(=O)c21`, the TGI in the experiment with NCI-H460 lung is above 100 µM; with HCC-2998 colon it was 57.1 µM; in the experiment on K-562 leukemia it was above 100 µM; with SNB-19 CNS, above 100 µM; in the experiment on RXF 393 renal it was above 100 µM; in the experiment with UACC-257 melanoma, above 100 µM. Also, the TGI is above 100 µM in the experiment with A549 NSCLC; above 100 µM with HOP-92 NSCLC; 31.1 µM in the experiment with MALME-3M melanoma; above 100 µM with SR leukemia; above 100 µM in the experiment with CCRF-CEM leukemia; 4.16 µM with SNB-75 CNS.

On to `C=C1C(=O)C[C@@]23CCC[C@@]12CC(OCOC)C3` (stereo not given in full), for which the TGI with NCI-H460 lung is 13.2 µM; with HCC-2998 colon, 12.3 µM; with K-562 leukemia, above 51.5 µM; in the experiment on SNB-19 CNS, 28.7 µM; with RXF 393 renal, 2.17 µM; in the experiment on UACC-257 melanoma it was 7.82 µM. In addition, the TGI is 28.4 µM in the experiment on A549 NSCLC; 5.66 µM in the experiment with OVCAR-4 ovarian; 7.43 µM with HOP-92 NSCLC; 8.38 µM in the experiment with MALME-3M melanoma; 6.81 µM in the experiment with CCRF-CEM leukemia; 6.41 µM in the experiment on SNB-75 CNS.

On to `O=C1C=CC2=[N+]([O-])C(c3ccccc3)(c3ccccc3)C(=Nc3ccccc3)C2=C1`, for which the TGI in the experiment on NCI-H460 lung came to 34.4 µM; with HCC-2998 colon it was 19.6 µM; in the experiment on K-562 leukemia it was 4.34 µM; in the experiment with SNB-19 CNS it was 31.6 µM; in the experiment on RXF 393 renal, 3.04 µM; in the experiment with UACC-257 melanoma, 4.11 µM. In addition, the TGI in the experiment on A549 NSCLC came to 29.4 µM; with OVCAR-4 ovarian, 3.28 µM; in the experiment on HOP-92 NSCLC it was 3.48 µM; in the experiment on MALME-3M melanoma it was 4.2 µM; with SR leukemia, 0.763 µM; in the experiment on CCRF-CEM leukemia, 2.18 µM. In addition, the TGI with SNB-75 CNS came to 8.74 µM.

As for `N=C(N)c1ccc(-c2ccc(-c3ccccc3)s2)cc1`, the GI50 in the experiment on RXF 393 renal is 1.72 µM; with A549 NSCLC it was 2.14 µM; in the experiment with OVCAR-4 ovarian it was 1.59 µM; in the experiment on HOP-92 NSCLC it was 1.55 µM; in the experiment with MALME-3M melanoma it was 1.45 µM; in the experiment with SR leukemia it was 0.668 µM. In the experiment on CCRF-CEM leukemia, the GI50 was 1.97 µM. For the same compound, the TGI is 3.39 µM with RXF 393 renal; 4.73 µM with A549 NSCLC; 3.21 µM with OVCAR-4 ovarian; 3.34 µM in the experiment with HOP-92 NSCLC; 2.83 µM with MALME-3M melanoma; 4.13 µM in the experiment with SR leukemia. Also, in the experiment with CCRF-CEM leukemia, the TGI stood at 4.57 µM.
